Among the data in patent publication US20230286958A1, “PLASMA KALLIKREIN INHIBITORS” (Merck Sharp & Dohme LLC, priority 2020, published 2023) are IC50 values, retold here.

Usually IC50 stands for the concentration at which inhibition is half-maximal.

One experiment deals with Human plasma kallikrein (Homo sapiens (Human), UniProt P03952). The experiment in a line: Kallikrein Assay (fluorogenic substrate Acetyl-K-P-R-AFC). It is filed as biochemical. Conditions: Plasma Kallikrein (PKal). The essentials: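 Ki is derived from IC50 with the Cheng-Prusoff equation, and IC50 from the inflection point of a four-parameter logistic curve. The rate of AFC release is read with 0.5 nM purified enzyme and […] substrate at room temperature or 37 °C.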
Human plasma kallikrein, sequence (P03952 391-638): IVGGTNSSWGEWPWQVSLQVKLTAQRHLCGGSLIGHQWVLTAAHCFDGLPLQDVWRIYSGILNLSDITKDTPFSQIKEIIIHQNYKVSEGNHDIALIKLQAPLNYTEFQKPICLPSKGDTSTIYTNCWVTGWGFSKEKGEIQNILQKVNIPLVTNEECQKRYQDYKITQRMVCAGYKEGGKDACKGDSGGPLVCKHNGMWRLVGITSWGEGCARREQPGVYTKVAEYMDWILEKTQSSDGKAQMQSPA
Human plasma kallikrein, sequence (P03952 20-390 partner): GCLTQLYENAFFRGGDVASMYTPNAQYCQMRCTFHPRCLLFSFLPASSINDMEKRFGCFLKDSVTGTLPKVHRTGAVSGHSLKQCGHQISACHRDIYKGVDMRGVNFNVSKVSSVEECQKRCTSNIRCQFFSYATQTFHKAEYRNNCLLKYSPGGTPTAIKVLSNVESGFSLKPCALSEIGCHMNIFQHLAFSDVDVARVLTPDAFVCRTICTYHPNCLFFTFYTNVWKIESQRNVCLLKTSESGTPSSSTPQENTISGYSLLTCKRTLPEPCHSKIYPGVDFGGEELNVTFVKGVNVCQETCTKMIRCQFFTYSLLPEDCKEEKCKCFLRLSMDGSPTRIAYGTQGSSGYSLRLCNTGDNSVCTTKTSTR

A further experiment addresses human Factor XIa (Homo sapiens (Human), UniProt P03951). The experiment in a line: Factor XIa Assay (fluorogenic substrate GPR-AFC). It is filed as biochemical. Conditions: Factor XIa (FXIa).

human Factor XIa, sequence (P03951 388-625 limits assumed): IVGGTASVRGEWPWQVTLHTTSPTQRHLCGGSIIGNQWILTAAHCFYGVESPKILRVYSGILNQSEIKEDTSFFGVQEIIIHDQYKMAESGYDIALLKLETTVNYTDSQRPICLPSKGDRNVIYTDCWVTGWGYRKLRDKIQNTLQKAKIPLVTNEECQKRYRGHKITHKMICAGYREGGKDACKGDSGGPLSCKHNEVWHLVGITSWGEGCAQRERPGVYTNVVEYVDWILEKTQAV
human Factor XIa, sequence (P03951 19-387 partner limits assumed): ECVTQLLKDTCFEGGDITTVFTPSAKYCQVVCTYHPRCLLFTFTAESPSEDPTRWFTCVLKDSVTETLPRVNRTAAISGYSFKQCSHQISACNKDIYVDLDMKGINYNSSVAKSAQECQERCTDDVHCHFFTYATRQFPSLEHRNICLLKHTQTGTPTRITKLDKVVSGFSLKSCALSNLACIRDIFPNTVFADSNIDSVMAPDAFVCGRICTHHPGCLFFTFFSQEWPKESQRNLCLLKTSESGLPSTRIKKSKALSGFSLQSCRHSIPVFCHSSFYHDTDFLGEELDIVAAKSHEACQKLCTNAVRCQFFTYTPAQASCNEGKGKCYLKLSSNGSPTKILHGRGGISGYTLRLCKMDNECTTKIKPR

As for `Cc1cc([C@@H](C)n2cc(NC(=O)c3nc(-c4c(OC(F)F)ccc(Cl)c4F)cnc3CO)cn2)cnc1N1C[C@H]2C[C@H]2C1=O` [Example 227, 6-(3-Chloro-6-(difluoromethoxy)-2-fluorophenyl)-3-(hydroxymethyl)-N-(1-((R)-1-(5-methyl-6-((1R,5S)-2-oxo-3-azabicyclo[3.1.0]hexan-3-yl)pyridin-3-yl)ethyl)-1H-pyrazol-4-yl)pyrazine-2-carboxamide], the concentration for half-maximal inhibition (IC50) was 0.6 nM against Human plasma kallikrein and 25 nM against human Factor XIa.

`CCc1ncc(-c2c(C(F)F)ccc(Cl)c2F)nc1C(=O)Nc1cnn(Cc2cc(C)c(N3C[C@H]4C[C@H]4C3=O)nn2)c1` [Example 233, 6-(3-Chloro-6-(difluoromethyl)-2-fluorophenyl)-3-ethyl-N-(1-((5-methyl-6-((1R,5S)-2-oxo-3-azabicyclo[3.1.0]hexan-3-yl)pyridazin-3-yl)methyl)-1H-pyrazol-4-yl)pyrazine-2-carboxamide]: the results for the IC50 against Human plasma kallikrein and against human Factor XIa were 19.7 nM and 1200 nM, respectively.

On to `CCc1ncc(-c2c(C(F)F)ccc(Cl)c2F)nc1C(=O)Nc1cnn(Cc2cnc(N3C[C@H]4C[C@H]4C3=O)c3c2OCO3)c1` [Example 255, 6-(3-Chloro-6-(difluoromethyl)-2-fluorophenyl)-3-ethyl-N-(1-((4-((1R,5S)-2-oxo-3-azabicyclo[3.1.0]hexan-3-yl)-[1,3]dioxolo[4,5-c]pyridin-7-yl)methyl)-1H-pyrazol-4-yl)pyrazine-2-carboxamide], for which the IC50 at Human plasma kallikrein was found to be 2.6 nM; against human Factor XIa, 734 nM.
